Experimental data from ChEMBL document CHEMBL5143723, “Orally Bioavailable Enzymatic Inhibitor of CD38, MK-0159, Protects against Ischemia/Reperfusion Injury in the Murine Heart” (J Med Chem, 2022).
≈ marks a conversion by molar mass, not a printed value. Blank lines part the entries; values can stand above or below the compound they belong to. Calls of active or inactive are those of the source. No cut-off for these calls is given here.

How the values were obtained:
[1] = target: T1, ADP-ribosyl cyclase/cyclic ADP-ribose hydrolase 1 (Homo sapiens, UniProt P28907)
T1 sequence (P28907 whole entry): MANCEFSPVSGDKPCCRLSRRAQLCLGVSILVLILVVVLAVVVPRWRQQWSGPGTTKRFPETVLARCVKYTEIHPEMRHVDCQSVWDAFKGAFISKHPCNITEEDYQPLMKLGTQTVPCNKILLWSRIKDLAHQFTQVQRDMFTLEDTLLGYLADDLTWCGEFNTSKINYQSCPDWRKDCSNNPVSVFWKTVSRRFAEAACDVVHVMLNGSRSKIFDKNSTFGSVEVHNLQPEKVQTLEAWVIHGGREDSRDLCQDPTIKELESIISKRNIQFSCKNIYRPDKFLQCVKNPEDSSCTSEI
Description: Inhibition of human his tagged CD38 using N6-etheno-NAD as substrate by fluorescence microplate reader assay

Mus musculus [2] = species on record: Mus musculus; conditions: C57BL/6, dose 30.0 mg/kg, route po, time 4.0 hrs
[3] = Apparent permeability of compound across apical to basal membrane in human Caco-2 cells; type: ADME, cell-based
[4] = Volume of distribution at steady state in Sprague-Dawley rat at 1 mg/kg, iv; type: ADME, organism-based; conditions: in vivo
[5] = AUC in non-human primates at 1 mg/kg, iv; type: ADME, organism-based; design: dose 1 mg/kg, route iv; conditions: in vivo
[6] = Half life in non-human primates at 1 mg/kg, po; type: ADME, organism-based; conditions: in vivo
[7] = In vivo inhibition of CD38 in po dosed mouse assessed as reduction in ADPR level in heart measured after 6 hrs; type: functional, organism-based
Mus musculus [8] = species on record: Mus musculus; conditions: C57BL/6, dose 30.0 mg/kg, route po, time 4.0 hrs; remark: listed apart in the source
[9] = Volume of distribution at steady state in non-human primates at 1 mg/kg, iv; type: ADME, organism-based; conditions: in vivo, read-out: Vdss
[10] = target: T2, ADP-ribosyl cyclase/cyclic ADP-ribose hydrolase 1 (Mus musculus, UniProt P56528); assay: Inhibition of mouse his tagged CD38 using N6-etheno-NAD as substrate by fluorescence microplate reader assay
T2 sequence (P56528 whole entry): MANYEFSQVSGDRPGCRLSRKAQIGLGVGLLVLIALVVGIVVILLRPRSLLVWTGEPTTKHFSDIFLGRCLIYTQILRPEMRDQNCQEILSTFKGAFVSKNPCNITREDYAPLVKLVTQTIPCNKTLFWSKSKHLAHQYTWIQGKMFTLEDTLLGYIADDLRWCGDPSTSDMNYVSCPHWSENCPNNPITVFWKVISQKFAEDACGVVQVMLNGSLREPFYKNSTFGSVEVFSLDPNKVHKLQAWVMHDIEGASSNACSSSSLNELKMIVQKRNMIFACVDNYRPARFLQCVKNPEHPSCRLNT

[11] = Plasma protein binding in mouse; type: ADME, cell-free; conditions: read-out: PPB (converted)
[12] = Thermodynamic aqueous solubility of the compound; type: physicochemical; conditions: buffer; read-out: Therm_solubility
[13] = Apparent permeability of compound across basolateral to apical side in human Caco-2 cells; type: ADME, cell-based
Mus musculus [14] = species on record: Mus musculus; conditions: dose 3-30 mg/kg, route po, time 6.0 hrs
[15] = Cmax in Sprague-Dawley rat at 10 mg/kg, po; type: ADME, organism-based; design: dose 10 mg/kg, route po; conditions: in vivo
[16] = Drug exposure in mouse plasma assessed as AUC of drug at 3 mg/kg, po; type: ADME, organism-based; design: dose 3 mg/kg, route po
CYP1A2 = target: T3, CYP1A2 (Homo sapiens, UniProt P05177); assay: Inhibition of CYP1A2 (unknown origin) at 10 uM relative to control; type: ADME
T3 sequence (P05177 whole entry): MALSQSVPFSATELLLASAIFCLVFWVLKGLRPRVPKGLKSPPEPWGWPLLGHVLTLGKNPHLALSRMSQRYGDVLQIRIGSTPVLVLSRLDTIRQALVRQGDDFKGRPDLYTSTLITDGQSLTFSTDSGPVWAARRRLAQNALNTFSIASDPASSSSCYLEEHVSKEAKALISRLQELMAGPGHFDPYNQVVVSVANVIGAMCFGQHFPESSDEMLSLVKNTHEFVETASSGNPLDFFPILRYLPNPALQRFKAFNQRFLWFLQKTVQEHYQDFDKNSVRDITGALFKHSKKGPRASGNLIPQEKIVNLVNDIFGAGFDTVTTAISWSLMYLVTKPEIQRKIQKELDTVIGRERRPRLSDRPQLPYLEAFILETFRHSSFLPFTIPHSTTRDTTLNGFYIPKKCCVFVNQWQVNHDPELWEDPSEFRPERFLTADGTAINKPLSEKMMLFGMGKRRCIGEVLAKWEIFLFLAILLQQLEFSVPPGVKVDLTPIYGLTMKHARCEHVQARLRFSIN

[17] = Plasma protein binding in rat; type: ADME, cell-free; conditions: read-out: PPB (converted)
[18] = Cmax in CD-1 mouse at 3 mg/kg, po; type: ADME, organism-based; design: dose 3 mg/kg, route po; conditions: in vivo
CYP2C9 = CYP2C9 (Homo sapiens, UniProt P11712); assay: Inhibition of CYP2C9 (unknown origin) at 10 uM relative to control; type: ADME
[19] = Plasma concentration in CD1 mouse at 10 to 90 mg/kg, via oral gavage by LC-MS/MS analysis; type: ADME, organism-based; conditions: in vivo, DDE = dose-dependent effect, dose 10-90 mg/kg
Mus musculus [20] = species on record: Mus musculus; conditions: dose 3-30 mg/kg, route po, time 6.0 hrs; remark: listed apart in the source
[21] = Half life in Sprague-Dawley rat at 1 mg/kg, iv; type: ADME, organism-based; conditions: in vivo
Mus musculus [22] = species on record: Mus musculus; conditions: dose 3-30 mg/kg, route po, time 6.0 hrs; remark: listed apart in the source
[23] = In vivo inhibition of CD38 in po dosed mouse assessed as reduction in ADPR level in blood mg/kg measured after 6 hrs; type: functional, organism-based
[24] = AUC in Sprague-Dawley rat at 10 mg/kg, po; type: ADME, organism-based; design: dose 10 mg/kg, route po; conditions: in vivo
hERG = hERG (Homo sapiens, UniProt Q12809); assay: Inhibition of hERG (unknown origin) at 10 uM by patch clamp method; type: toxicity
[25] = AUC in CD-1 mouse at 1 mg/kg, iv; type: ADME, organism-based; design: dose 1 mg/kg, route iv; conditions: in vivo
Mus musculus [26] = species on record: Mus musculus; conditions: C57BL/6, dose 30.0 mg/kg, route po, time 4.0 hrs; remark: listed apart in the source
[27] = Half life in Sprague-Dawley rat at 10 mg/kg, po; type: ADME, organism-based; conditions: in vivo
CYP2D6 = CYP2D6 (Homo sapiens, UniProt P10635); assay: Inhibition of CYP2D6 (unknown origin) at 10 uM relative to control; type: ADME
[28] = Plasma concentration in Sprague-Dawley rat at 10 to 90 mg/kg, via oral gavage by LC-MS/MS analysis; type: ADME, organism-based; conditions: in vivo, DDE = dose-dependent effect, dose 10-90 mg/kg
[29] = Plasma protein binding in human; type: ADME, cell-free; conditions: read-out: PPB (converted)
[30] = Oral bioavailability in non-human primates at 1 mg/kg; type: ADME, organism-based; conditions: in vivo
[31] = AUC in non-human primates at 1 mg/kg, po; type: ADME, organism-based; design: dose 1 mg/kg, route po; conditions: in vivo
CYP2C19 = CYP2C19 (Homo sapiens, UniProt P33261); assay: Inhibition of CYP2C19 (unknown origin) at 10 uM relative to control; type: ADME
[32] = Cmax in non-human primates at 1 mg/kg, po; type: ADME, organism-based; design: dose 1 mg/kg, route po; conditions: in vivo
Mus musculus [33] = species on record: Mus musculus; conditions: dose 3-30 mg/kg, route po, time 6.0 hrs; remark: listed apart in the source
Mus musculus [34] = species on record: Mus musculus; conditions: C57BL/6, dose 30.0 mg/kg, route po
Description: In vivo inhibition of CD38 in myocardial ischemia/reperfusion induced C57BL/6 mouse injury model assessed as change in cardiac NAD+ level at 30 mg/kg via oral gavage

[35] = Half life in CD-1 mouse at 3 mg/kg, po; type: ADME, organism-based; conditions: in vivo
[36] = Half life in non-human primates at 1 mg/kg, iv; type: ADME, organism-based; conditions: in vivo
[37] = AUC in Sprague-Dawley rat at 1 mg/kg, iv; type: ADME, organism-based; design: dose 1 mg/kg, route iv; conditions: in vivo
CYP2C8 = target: T4, CYP2C8 (Homo sapiens, UniProt P10632); assay: Inhibition of CYP2C8 (unknown origin) at 10 uM relative to control; type: ADME
T4 sequence (P10632 whole entry): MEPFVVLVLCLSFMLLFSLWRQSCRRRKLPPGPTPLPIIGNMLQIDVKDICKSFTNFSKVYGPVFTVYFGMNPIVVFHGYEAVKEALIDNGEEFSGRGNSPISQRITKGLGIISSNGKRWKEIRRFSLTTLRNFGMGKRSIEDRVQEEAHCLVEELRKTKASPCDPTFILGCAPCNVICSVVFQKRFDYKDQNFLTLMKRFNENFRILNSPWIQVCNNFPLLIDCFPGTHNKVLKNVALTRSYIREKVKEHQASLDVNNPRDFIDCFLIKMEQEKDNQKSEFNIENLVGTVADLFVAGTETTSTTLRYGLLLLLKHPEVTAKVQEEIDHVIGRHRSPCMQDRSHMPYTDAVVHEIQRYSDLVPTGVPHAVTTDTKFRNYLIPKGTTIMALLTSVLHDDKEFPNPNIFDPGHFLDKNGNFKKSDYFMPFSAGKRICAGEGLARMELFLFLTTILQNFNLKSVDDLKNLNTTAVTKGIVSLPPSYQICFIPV

[38] = Half life in CD-1 mouse at 1 mg/kg, iv; type: ADME, organism-based; conditions: in vivo
[39] = Kinetic aqueous solubility of the compound; type: physicochemical; conditions: buffer; read-out: Kinetic_solubility
[40] = Volume of distribution at steady state in CD-1 mouse at 1 mg/kg, iv; type: ADME, organism-based; conditions: in vivo
[41] = AUC in CD-1 mouse at 3 mg/kg, po; type: ADME, organism-based; design: dose 3 mg/kg, route po; conditions: in vivo
[42] = target: T5, ADP-ribosyl cyclase/cyclic ADP-ribose hydrolase 1 (Rattus norvegicus, UniProt Q64244); assay: Inhibition of rat CD38 using N6-etheno-NAD as substrate by fluorescence microplate reader assay
T5 sequence (Q64244 whole entry): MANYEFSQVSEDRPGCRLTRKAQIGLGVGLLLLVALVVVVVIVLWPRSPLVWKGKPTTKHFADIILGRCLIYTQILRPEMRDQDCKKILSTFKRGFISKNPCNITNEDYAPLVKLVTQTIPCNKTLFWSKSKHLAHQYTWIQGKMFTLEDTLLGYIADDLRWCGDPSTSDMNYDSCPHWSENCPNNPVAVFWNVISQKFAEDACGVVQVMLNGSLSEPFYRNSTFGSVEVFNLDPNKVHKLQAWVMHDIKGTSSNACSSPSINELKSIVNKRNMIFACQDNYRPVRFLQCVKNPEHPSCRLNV

Sequence of hERG (Q12809 whole entry): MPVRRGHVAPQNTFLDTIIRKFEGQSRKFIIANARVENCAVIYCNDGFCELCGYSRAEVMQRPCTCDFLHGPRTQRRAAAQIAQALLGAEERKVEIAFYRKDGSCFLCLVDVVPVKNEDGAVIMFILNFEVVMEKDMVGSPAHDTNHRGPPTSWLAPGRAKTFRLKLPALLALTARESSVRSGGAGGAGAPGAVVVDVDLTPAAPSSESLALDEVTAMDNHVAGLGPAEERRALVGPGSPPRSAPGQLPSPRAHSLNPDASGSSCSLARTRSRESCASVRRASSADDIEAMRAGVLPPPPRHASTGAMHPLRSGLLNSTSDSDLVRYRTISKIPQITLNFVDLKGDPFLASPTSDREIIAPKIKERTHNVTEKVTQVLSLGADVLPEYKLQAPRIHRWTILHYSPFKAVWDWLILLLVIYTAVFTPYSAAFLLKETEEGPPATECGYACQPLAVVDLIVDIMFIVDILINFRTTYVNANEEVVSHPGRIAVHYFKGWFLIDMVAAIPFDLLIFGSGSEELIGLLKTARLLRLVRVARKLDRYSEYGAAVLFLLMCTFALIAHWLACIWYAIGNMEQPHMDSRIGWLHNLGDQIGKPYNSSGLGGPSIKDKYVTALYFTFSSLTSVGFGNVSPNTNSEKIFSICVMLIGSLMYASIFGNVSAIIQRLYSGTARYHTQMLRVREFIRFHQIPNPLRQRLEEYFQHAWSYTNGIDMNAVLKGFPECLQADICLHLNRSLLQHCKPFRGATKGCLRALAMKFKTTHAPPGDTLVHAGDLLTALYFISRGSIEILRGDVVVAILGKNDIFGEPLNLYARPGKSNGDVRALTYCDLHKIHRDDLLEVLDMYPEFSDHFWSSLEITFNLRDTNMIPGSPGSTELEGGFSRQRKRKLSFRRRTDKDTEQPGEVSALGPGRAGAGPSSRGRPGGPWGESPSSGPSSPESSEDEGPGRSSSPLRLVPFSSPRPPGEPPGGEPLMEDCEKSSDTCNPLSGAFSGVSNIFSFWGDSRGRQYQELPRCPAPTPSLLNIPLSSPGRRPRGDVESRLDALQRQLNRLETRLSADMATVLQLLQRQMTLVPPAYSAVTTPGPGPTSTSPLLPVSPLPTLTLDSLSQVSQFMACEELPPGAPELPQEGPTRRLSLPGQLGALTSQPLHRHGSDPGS
Sequence of CYP2D6 (P10635 whole entry): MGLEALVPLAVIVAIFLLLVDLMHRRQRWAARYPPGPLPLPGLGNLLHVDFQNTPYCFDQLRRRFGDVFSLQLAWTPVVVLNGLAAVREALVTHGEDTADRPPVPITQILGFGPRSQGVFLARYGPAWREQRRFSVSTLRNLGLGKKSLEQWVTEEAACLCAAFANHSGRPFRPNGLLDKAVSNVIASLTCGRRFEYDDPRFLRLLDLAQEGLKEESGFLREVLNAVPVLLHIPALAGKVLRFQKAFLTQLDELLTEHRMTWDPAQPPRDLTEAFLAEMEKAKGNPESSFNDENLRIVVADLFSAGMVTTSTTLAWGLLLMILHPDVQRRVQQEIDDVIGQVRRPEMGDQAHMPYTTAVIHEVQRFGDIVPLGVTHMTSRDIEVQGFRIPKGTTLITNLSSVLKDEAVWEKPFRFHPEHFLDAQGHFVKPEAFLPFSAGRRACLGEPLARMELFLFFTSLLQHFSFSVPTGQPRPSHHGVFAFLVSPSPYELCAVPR
Sequence of CYP2C19 (P33261 whole entry): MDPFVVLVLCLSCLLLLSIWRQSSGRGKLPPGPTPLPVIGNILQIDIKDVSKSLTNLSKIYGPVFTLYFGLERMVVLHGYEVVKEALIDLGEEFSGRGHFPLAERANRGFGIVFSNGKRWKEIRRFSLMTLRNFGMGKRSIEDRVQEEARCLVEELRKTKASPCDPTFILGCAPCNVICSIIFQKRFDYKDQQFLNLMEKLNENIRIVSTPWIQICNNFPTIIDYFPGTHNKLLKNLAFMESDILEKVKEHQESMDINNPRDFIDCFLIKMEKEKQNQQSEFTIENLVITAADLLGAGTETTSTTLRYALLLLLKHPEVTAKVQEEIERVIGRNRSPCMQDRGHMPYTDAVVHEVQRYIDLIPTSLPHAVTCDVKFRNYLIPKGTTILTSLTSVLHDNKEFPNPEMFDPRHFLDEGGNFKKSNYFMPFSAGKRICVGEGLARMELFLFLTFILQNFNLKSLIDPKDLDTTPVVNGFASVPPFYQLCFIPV
Sequence of CYP2C9 (P11712 whole entry): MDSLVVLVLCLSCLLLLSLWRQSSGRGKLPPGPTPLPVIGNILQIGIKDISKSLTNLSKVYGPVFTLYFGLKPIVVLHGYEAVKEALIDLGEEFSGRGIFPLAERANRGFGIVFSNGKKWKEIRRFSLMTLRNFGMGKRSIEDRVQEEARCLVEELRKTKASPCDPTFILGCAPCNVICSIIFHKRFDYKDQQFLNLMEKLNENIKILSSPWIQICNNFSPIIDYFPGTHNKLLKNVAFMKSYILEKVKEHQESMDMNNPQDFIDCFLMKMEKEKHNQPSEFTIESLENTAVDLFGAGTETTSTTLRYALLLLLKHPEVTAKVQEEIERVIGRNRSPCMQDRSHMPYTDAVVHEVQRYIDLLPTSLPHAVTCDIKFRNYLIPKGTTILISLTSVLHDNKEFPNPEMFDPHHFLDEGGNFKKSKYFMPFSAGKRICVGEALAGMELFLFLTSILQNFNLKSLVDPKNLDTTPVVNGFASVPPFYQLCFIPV

- IC50 [1]: > 100000 nM
SMILES: COCCO[C@H]1CC[C@H](NC(=O)c2cc(-n3ccnc3C)cc3cc[nH]c23)CC1

- Papp A→B [3]: 17.5 ×10⁻⁶ cm/s
- Vdss [4]: 9 L/kg
- AUC [5]: 1670 ng·h/mL
- half-life [6]: 3 h
- EC50 [7]: 181 nM
- Vd [9]: 0.9 L/kg
- IC50 [10]: 3 nM
- fraction unbound [11]: 0.206
- solubility thermodynamic [12]: 10 µg/mL (≈ 25 µM)
- Papp B→A [13]: 29.6 ×10⁻⁶ cm/s
- Cmax [15]: 9.91 ng/mL
- AUC [16]: 10400 ng·h/mL
- inhibition at 10 µM (CYP1A2): < 15%
- fraction unbound [17]: 0.047
- Cmax [18]: 4230 ng/mL
- inhibition at 10 µM (CYP2C9): < 15%
- Activity [19]: Dde
- t1/2 [21]: 3 h
- EC50 [23]: 40 nM
- AUC [24]: 60400 ng·h/mL
- AUC [25]: 1295 ng·h/mL
- half-life [27]: 2.7 h
- inhibition at 10 µM (CYP2D6): < 15%
- Activity [28]: Dde
- fraction unbound [29]: 0.209
- bioavailability [30]: 100%
- AUC [31]: 1740 ng·h/mL
- inhibition at 10 µM (CYP2C19): < 15%
- Cmax [32]: 710 ng/mL
- half-life [35]: 1.2 h
- half-life [36]: 3.1 h
- AUC [37]: 4810 ng·h/mL
- inhibition at 10 µM (CYP2C8): < 15%
- t1/2 [38]: 1 h
- solubility kinetic [39]: 25 µM (≈ 10 µg/mL)
- Vdss [40]: 1.1 L/kg
- AUC [41]: 10400 ng·h/mL
- IC50 [42]: 70 nM
SMILES: COCCO[C@H]1CC[C@H](NC(=O)c2cc(-c3cncs3)nc3[nH]ccc23)CC1
- inhibition (Mus musculus [2]): Active
- inhibition (Mus musculus [8]): Active
- inhibition (Mus musculus [14]): Active
- inhibition (Mus musculus [20]): Active
- inhibition (Mus musculus [22]): Active
- inhibition at 10 µM (hERG): < 10%
- inhibition (Mus musculus [26]): Active
- inhibition (Mus musculus [33]): Active
- inhibition (Mus musculus [34]): Active

- IC50 [1]: > 100000 nM
SMILES: COCCO[C@H]1CC[C@H](NC(=O)c2cc(-c3cnn(C)c3)cc3cc[nH]c23)CC1

- IC50 [1]: > 100000 nM
SMILES: COCCO[C@H]1CC[C@H](NC(=O)c2cc(-c3ccccn3)cc3cc[nH]c23)CC1
